Experimental data as given in patent US9694090B2, “Process for preparing hyperpolarized substrates and method for MRI” (priority 2010, dated 2017).
One block for each compound: values may come before it.

How the values were obtained:
[1] = DNP solid-state polarization signal and build-up (1.2 K, 3.35 T); settings: DNP at 1.2 K
Experimental: To this solution 1.1 mg (0.77 μmol) radical 1 was added. […] This entire sample was hyperpolarized under DNP conditions at 1.2 K in a 3.35 T magnetic field under irradiation with microwave (93.900 GHz) until the polarization was fully build-up. The polarization was monitored in solid state with small pulse angles (5 degree) collected every 300 s.
This entire sample was polarized under DNP conditions at 1.2 K in a 3.35 T magnetic field under irradiation with microwave (93.900 GHz) until the polarization was fully built-up. The polarization was monitored in solid state with small pulse angles (5 degree) collected every 300 s.
To this solution 0.77 mg (0.54 μmol) radical 1 was added. […] This entire sample was polarized under DNP conditions at 1.2 K in a 3.35 T magnetic field under irradiation with microwave (93.900 GHz) until the polarization was fully built-up. The polarization was monitored in solid state with small pulse angles (5 degree) collected every 300 s.
To this solution 1.65 mg (1.15 μmol) radical 1 was added. […] This entire sample was polarized under DNP conditions at 1.2 K in a 3.35 T magnetic field under irradiation with microwave (93.900 GHz) until the polarization was fully built-up. The polarization was monitored in solid state with small pulse angles (5 degree) collected every 300 s.
63.2 mg (0.33 mmol) of this sample was hyperpolarized under DNP conditions at 1.2 K in a 3.35 T magnetic field under irradiation with microwave (93.900 GHz) until the polarization was fully built-up.

[2] = Glass formation of the DNP preparation upon rapid freezing in liquid nitrogen; format: physicochemical
Experimental: Butyric acid (11.7 mg, 0.13 mmol) was placed into an Eppendorf tube and mixed with 9.0 mg of a glycerol solution containing 39 mM of Radical 1. This preparation was 7 M with respect to butyric acid.
Butyric anhydride (40 μl, 0.24 mmol) was added to an Eppendorf tube and mixed with 1 mg of Radical 3 in a total concentration of 15 mM. This preparation was 6.5 M with respect to butyric anhydride (which, upon hydrolysis provides a 13 M concentration in butyric acid molecules).
Butyric acetic anhydride (36 μl, 0.28 mmol) was added to an Eppendorf tube and mixed with 0.85 mg of acid form of Radical 3 in a total concentration of 15 mM. This preparation was 7.5 M with respect to butyric acetic acid.
Li-acetoacetate (22.4 mg, 0.21 mmol) was added to an Eppendorf tube and mixed with 28 μl of a DMSO preparation (25 mM Radical 3 and 0.8 mM 3-Gd). This preparation was 4 M with respect to Li-acetoacetate.
To an Eppendorf tube was added diketene (9.6 mg, 0.11 mmol) and mixed with 4.7 mg of a DMSO preparation of Radical 3 (45 mM) and 3-Gd (1.5 mM). This preparation was 8.5 M with respect to diketene.
Ethyl acetoacetate (45 μl, 0.34 mmol) was added to an Eppendorf tube and mixed with acid form of Radical 2 (0.7 mg, 0.65 μmol) in a total concentration of 15 mM. This preparation was 8 M with respect to ethyl acetoacetate.
Cis-aconitic acid (18.6 mg, 0.11 mmol) was added to an Eppendorf tube and mixed with a 32.5 μl DMSO preparation (25 mM Radical 3 and 0.8 mM 3-Gd). This preparation was 2.5 M with respect to cis-aconitic acid.
Cis-aconitic anhydride (188 mg, 1.2 mmol) was added to an Eppendorf tube and mixed with 2.85 mg (2 μmol) of Radical 1 and 0.98 mg of a 83 μmol/g solution of 3-Gd. This preparation was 9 M with respect to cis-aconitic anhydride.
Succinic acid (42.1 mg, 0.35 mmol) was added to an Eppendorf tube and mixed and mixed with 92 mg of a DMSO preparation (20 mM Radical 3 and 0.8 mM 3-Gd). This preparation was 4 M with respect to succinic acid.
Succinic anhydride (21.5 mg, 0.21 mmol) was added to an Eppendorf tube and mixed with 21.8 mg of a DMSO solution of Radical 3 (30 mM) and of 3-Gd (1 mM). This preparation was 6 M with respect to succinic anhydride.
Succinic-(1)-ethyl ester (111 mg, 0.75 mmol) was added to an Eppendorf tube and mixed with the carboxylic acid form of Radical 2 (2.4 mg, 1.5 μmol) and 3-Gd (3.4 μl of a 14.5 mM solution in water). This preparation was 6 M with respect to succinic-(1)-ethyl ester.
(§1) L-Glutamine (50.9 mg, 0.35 mmol) was added to an Eppendorf tube and dissolved in 29 μl of 12 M NaOH and mixed with 1.7 mg of radical 1 and 3-Gd (2.3 μl of a 14.5 mM water stock solution). This preparation was 4 M with respect to L-glutamine.

[3] = T1 relaxation time in solution at 14.1 T; format: physicochemical; settings: for High field liquid state T1: 14.1 T magnet, phosphate buffer, pH 7.1-7.2
Experimental: The ester was only partly hydrolyzed.
The T1 of the hydrolyzed product, succinate is 33 s (14.1 T and 37° C.).
The sample was dissolved in 5 ml phosphate buffer (100 mM, pH 7) with added one equivalent HCl. The pH is 7.1 after dissolution.
The pH is 7.2 after dissolution.

[4] = Hydrolysis of the DNP hyperpolarized precursor on dissolution with strong base, followed by 13C-NMR time series; format: physicochemical
Experimental: (§2) The composition from example 1b (25 mg, 0.16 mmol) was transferred from the Eppendorf tube to a sample cup and the sample cup was inserted into a DNP polariser. The composition was hyperpolarised under DNP conditions at 1.2 K in a 3.35 T magnetic field under irradiation with microwave (93.915 GHz). The sample was hyperpolarized for 75 min.
The sample was dissolved in 4 ml water with added NaOH (50 μl of 12M solution). The pH of the dissolved sample was 12. The solution was collected directly into a 10 mm NMR tube and transferred to a 14.1 T magnet where a time series of 5 degree 1D 13C-NMR spectra were recorded with a total delay between the pulses of 1 s.
as §2, with “is (33” for “1b (25”, “0.25” for “0.16”, “90” for “75”
The sample was dissolved in 5 ml water with added NaOH (125 μl of 12M). The solution was collected directly into a 10 mm NMR tube and transferred to a 14.1 […]) T magnet where a time series of 5 degree 1D 13C-NMR spectra were recorded with a total delay between the pulses of 1 s.
(§3) The entire composition from example 2b was transferred from the Eppendorf tube to a sample cup and the sample cup was inserted into a DNP polariser. The composition was hyperpolarised under DNP conditions at 1.2 K in a 3.35 T magnetic field under irradiation with microwave (93.915 GHz). The sample was hyperpolarized for 3 hours.
(§4) The sample was dissolved in 5 ml water with added NaOH (125 μl of 12 M). The solution was collected directly into a 10 mm NMR tube and transferred to a 14.1 T magnet (pH 13) where a time series of 64 five degree 1D 13C-NMR spectra were recorded with a total delay between the pulses of 3 s.
as §2, with “is (20.5” for “1b (25”, “2 hours.” for “75 min.”
(§5) The sample was dissolved in 5 ml water with added NaOH (200 μl of 12 M). The solution was collected directly into a 10 mm NMR tube and transferred to a 14.1 T magnet (pH 12.8) where a time series of 5 degree 1D 13C-NMR spectra were recorded with a total delay between the pulses of 3 s.
as §3, with “The” for “The entire”, “2b was melted on a water-bath and stirred with a magnetic stirrer. 45 mg of this preparation (0.29 mmol)” for “2b”, “90 min.” for “3 hours.”
(§6) The sample was dissolved in 6 ml water with added NaOH (190 μl of 12 M). The solution was collected directly into a 10 mm NMR tube and transferred to a 14.1 T magnet (pH 12.8) where a time series of 64 five degree 1D 13C-NMR spectra were recorded with a total delay between the pulses of 3 s.

[5] = Degradation / isomerisation of the substrate in DNP preparation and dissolution (NMR)
Experimental: as §3, with “2a” for “2b”, “75 min.” for “3 hours.”
The sample was dissolved in 5 ml phosphate buffer pH 7.3 (40 mM+EDTA).
The solution was collected directly into a 10 mm NMR tube and transferred to a 14.1 T magnet where a 90 degree 1D 13C-NMR spectrum was recorded.
as §4, §5
The sample was dissolved in 5 ml 40 mM phosphate buffer pH 7.3+100 mg/l EDTA, thus resulting in an ester concentration of 20 mM. 1 ml of the ester solution was injected through a transfer line into a 10 mm NMR tube placed at 14.1 T and 37° C. The 10 mm NMR tube contained a 500 μl solution of approximately 270 U of a carboxylic-ester hydrolase from porcine liver. A time series of 10 degree 1D 13C-NMR spectra were recorded with a total delay between the pulses of 3 s.
as §5, with “phosphate buffer (40 mM, pH 7.3)” for “water”, “30” for “NaOH (200”, “μl” for “μl of”, “M NaOH. […]” for “M).”, “magnet” for “magnet (pH 12.8)”
as §6, §1
N-acetyl-L-glutamine (57.2 mg, 0.3 mmol) was added to an Eppendorf tube and dissolved in 25.3 μl of 12 M NaOH and mixed with 1.9 mg of radical 1 and 3-Gd (2.3 μl of a 14.5 mM water stock solution).

[6] = with trityl radical, without addition of glass-forming agents
[7] = dissolved in 12 M NaOH with radical 1
[8] = after 15 s, strong base (NaOH or NaOD), pH 11-12.2
[9] = after 10 s, water with added NaOH, pH 12-13
[10] = mixed with DMSO preparation of Radical 3
[11] = after 20 s, water with added NaOH, pH 12.9-13

SMILES: C=C(CC(=O)OCC)[13C](=O)OCC [1-13C Itaconate diethyl ester]
Polarization build-up time constant [1]: 2120 s | Glass formation upon rapid freezing [2, 6]: formed a glass

SMILES: [2H][13C]([2H])(N)C(=O)O [2-13C-d2-Glycine, reference compound]
High field liquid state T1 [3]: 46 s | Glass formation upon rapid freezing in liquid nitrogen [2, 7]: forms a glass

SMILES: [2H][13C]([2H])(NC(C)=O)C(=O)O [2-13C-d2-N-acetyl glycine]
High field liquid state T1 [3]: 40 s | Glass formation upon rapid freezing in liquid nitrogen [2, 7]: formed a glass

SMILES: CCCC(=O)OC(C)=O [Butyric acetic anhydride]
Precursor hydrolyzed [4, 9]: at least 95% | Glass formation upon rapid freezing [2, 6]: formed a glass

SMILES: CCCC(=O)OC(=O)CCC [Butyric anhydride]
Precursor hydrolyzed [4, 9]: at least 95% | Glass formation upon rapid freezing [2, 6]: formed a glass

SMILES: CCCC(=O)OC(=O)OCC [Butyric ethylcarbonic anhydride]
Glass formation upon rapid freezing ([2]; absence of a glass forming additive, Example 1d (Prophetic)): forms a glass

SMILES: O=C(O)/C=C(/CC(=O)O)C(=O)O [Cis-aconitic acid, reference compound]
Glass formation upon rapid freezing in liquid nitrogen [2, 10]: formed a glass | Amount of trans isomer of aconitate ([5]; after DNP and dissolution in phosphate buffer with NaOH, pH 7.2): about 10%

SMILES: CCOC(=O)C1CSC(=O)N1 (centres unmarked) [Ethyl OTZ, 2-Oxothiazolidine-4-carboxylic ethyl ester]
Precursor hydrolyzed ([4]; in less than 10 s, water with added NaOH, pH 11-12.6): at least 95%

SMILES: CCOC(=O)C(N)Cc1ccccc1 (centres unmarked) [Ethyl phenylalanine]
Precursor hydrolyzed [4, 8]: at least 95% | Glass formation upon rapid freezing [2, 6]: formed a glass

SMILES: CC(=O)CC(=O)[O-].[Li+] [Li-acetoacetate, reference compound]
Glass formation upon rapid freezing in liquid nitrogen [2, 10]: formed a glass | Amount of degradation (decarboxylation) ([5]; 1H NMR on DNP sample following dissolution in phosphate buffer pH 7.3): 40%

SMILES: O=C(O)CCC(=O)O [Succinic acid, reference compound]
Glass formation upon rapid freezing in liquid nitrogen [2, 10]: formed a glass

SMILES: O=C1CCC(=O)O1 [Succinic anhydride]
Precursor hydrolyzed [4, 9]: at least 95% | Glass formation upon rapid freezing in liquid nitrogen [2, 10]: formed a glass

SMILES: CC(=O)CC(=O)O [acetoacetate]
T1 of the C1 position in the hydrolyzed product ([3]; 14.1 T and 37° C.): 32 s | T1 of the hydrolyzed product ([3]; 14.1 T and 37° C.): 32 s | Degradation (decarboxylation) of acetoacetate formed ([5]; after esterase hydrolysis of ethyl acetoacetate, pH 7.3): No degradation | Degradation (decarboxylation) of acetoacetate formed ([5]; after hydrolysis of precursor with NaOH, pH 12.8-13): No substantial degradation

SMILES: O=C(O)/C=C(/CC(=O)O)C(=O)O [cis-aconitate]
T1 of the hydrolyzed product ([3]; 14.1 T and 37° C.): 24 s

SMILES: C=C1CC(=O)O1 [diketene, 4-Methylideneoxetan-2-one]
Precursor hydrolyzed [4, 9]: at least 95% | Glass formation upon rapid freezing in liquid nitrogen [2, 10]: formed a glass

SMILES: O=C(O)CCC(=O)O [succinate]
T1 of the hydrolyzed product ([3]; 14.1 T and 37° C.): 33 s

Further lines, results first:

Precursor hydrolyzed [4, 8]: at least 95% | Glass formation upon rapid freezing [2, 6]: formed a glass
SMILES: CCOC(=O)C(=O)CCC(=O)O [2-oxoglutaric-(1)-ethyl ester]

Glass formation upon rapid freezing in liquid nitrogen ([2]; mixed with glycerol solution of Radical 1): formed a glass | Glass formation upon rapid freezing [2, 6]: crystallizes
SMILES: CCCC(=O)O [Butyric acid, reference compound]

Precursor hydrolyzed [4, 9]: at least 95% | Glass formation upon rapid freezing [2, 6]: formed a glass | Presence of trans-aconitate ([5]; after DNP and hydrolysis with NaOH, pH 12.8): neglectable
SMILES: O=C(O)CC1=CC(=O)OC1=O [Cis-aconitic anhydride, cis-Aconitic anhydride]

Glass formation upon rapid freezing in liquid nitrogen [2, 7]: formed a glass | Amount of degradation in the DNP preparation ([5]; 4 M): 14%
SMILES: NC(=O)CC[C@H](N)C(=O)O [L-Glutamine, reference compound]

Glass formation upon rapid freezing in liquid nitrogen [2, 7]: formed a glass
SMILES: N[C@@H](Cc1ccccc1)C(=O)O [L-Phenylalanine, reference compound]

Glass formation upon rapid freezing in liquid nitrogen [2, 10]: formed a glass
SMILES: O=C(O)CC(O)C(=O)O (centres unmarked) [Malic acid, reference compound]

Precursor hydrolyzed [4, 11]: at least 95% | Glass formation upon rapid freezing [2, 6]: formed a glass
SMILES: CCOC(=O)C(O)CC(=O)O (centres unmarked) [Malic-(1)-ethyl ester]

Precursor hydrolyzed [4, 11]: at least 95% | Glass formation upon rapid freezing [2, 6]: formed a glass
SMILES: CCOC(=O)CCC(=O)O [Succinic-(1)-ethyl ester]
